Experimental data: patent US7592160B2, “Processes for producing isomaltose and isomaltitol and use thereof” (Kabushiki Kaisha Hayashibara Seibutsu Kagaku Kenkyujo, priority 2001, dated 2009)

Key:
Set-up in all cases: key: −: no saccharide-transferred product was detected through transfer reaction to acceptor; ±: a saccharide-transferred product was detected in an amount less than one percent through transfer reaction to acceptor; +: a saccharide-transferred product was detected in an amount over one percent but less than 10% through transfer reaction to acceptor; ++: a saccharide-transferred product was detected in an amount over ten percent through transfer reaction to acceptor
[1] = system: α-isomaltosylglucosaccharide-forming enzyme; test: Transfer-acceptor specificity, enzyme of A19 strain; assay type: biochemical, Arthrobacter globiformis A19 strain; conditions: acceptor 1.6%, PINE-DEX #100 donor 4%, one unit/g donor, 30° C., pH 8.4, 24 hours
Procedure: (§1) Using various saccharides, it was tested whether the saccharides were used as transferring-acceptors for α-isomaltosylglucosaccharide-forming enzyme. A solution of D-glucose, D-xylose, L-xylose, D-galactose, D-fructose, D-mannose, D-arabinose, D-fucose, D-psicose, L-sorbose, L-rhamnose, methyl-α-glucopyranoside, methyl-β-glucopyranoside, N-acetyl-glucosamine, sorbitol, α,α-trehalose, isomaltose, isomaltotriose, cellobiose, gentibiose, glycerol, maltitol, lactose, sucrose, α-cyclodextrin, β-cyclodextrin, γ-cyclodextrin, or L-ascorbic acid was prepared. To each solution with a saccharide concentration of 1.6% was added “PINE-DEX #100”, a partial starch hydrolyzate, as a saccharide donor, to give a concentration of 4%, and admixed with one unit/g saccharide donor, d.s.b., of either of purified specimens of α-isomaltosylglucosaccharide-forming enzyme from Bacillus globisporus C9 strain obtained by the method in Experiment 4-2, Bacillus globisporus C11 strain obtained by the method in Experiment 7-2, Bacillus globisporus N75 strain obtained by the method in Experiment 11-2, or Arthrobacter globiformis A19 strain obtained by the method in Experiment 15-2, and incubated at 30° C. and pH 6.0 for 24 hours, except that pH 8.4 was used for the enzyme from Arthrobacter globiformis A19 strain. The reaction mixtures of the post-enzymatic reactions were analyzed on gas chromatography (abbreviated as “GLC” hereinafter) for monosaccharides and disaccharides as acceptors, and on HPLC for trisaccharides as acceptors to confirm whether these saccharides could be used as the transfer acceptors of the above enzymes. In the case of performing GLC, the following apparatuses and conditions were used: GLC apparatus, “GC-16A” commercialized by Shimadzu Corporation, Tokyo, Japan; column, a stainless-steel column, 3 mm in diameter and 2 m in length, packed with 2% “SILICONE OV-17/CHROMOSOLV W”, commercialized by GL Sciences Inc., Tokyo, Japan; carrier gas, nitrogen gas at a flow rate of 40 ml/min under temperature conditions of increasing from 160° C. to 320° C. at an increasing temperature rate of 7.5° C./min; and detection, a hydrogen flame ionization detector. In the case of performing HPLC analysis, the following apparatuses and conditions were used: HPLC apparatus, “CCPD” commercialized by Tosoh Corporation, Tokyo, Japan; column, “ODS-AQ-303” commercialized by YMC Co., Ltd., Tokyo, Japan; eluent, water at a flow rate of 0.5 ml/min; and detection, a differential refractometer.

[2] = system: α-isomaltosylglucosaccharide-forming enzyme; test: Transfer-acceptor specificity, enzyme of C11 strain; assay type: biochemical, Bacillus globisporus C11 strain; conditions: acceptor 1.6%, PINE-DEX #100 donor 4%, one unit/g donor, 30° C., pH 6.0, 24 hours
Procedure: as §1

[3] = system: α-isomaltosylglucosaccharide-forming enzyme; test: Transfer-acceptor specificity, enzyme of N75 strain; assay type: biochemical, Bacillus globisporus N75 strain; conditions: acceptor 1.6%, PINE-DEX #100 donor 4%, one unit/g donor, 30° C., pH 6.0, 24 hours
Procedure: as §1

[4] = system: α-isomaltosylglucosaccharide-forming enzyme; test: Transfer-acceptor specificity, enzyme of C9 strain; assay type: biochemical, Bacillus globisporus C9 strain; conditions: acceptor 1.6%, PINE-DEX #100 donor 4%, one unit/g donor, 30° C., pH 6.0, 24 hours
Procedure: as §1

Compound | Product of transferring reaction, Enzyme of A19 strain [1] | Product of transferring reaction, Enzyme of C11 strain [2] | Product of transferring reaction, Enzyme of N75 strain [3] | Product of transferring reaction, Enzyme of C9 strain [4]
O=C[C@@H](O)[C@H](O)[C@H](O)CO [D-Arabinose, D-arabinose] | ± (a saccharide-transferred product was detected in an amount less than one percent through transfer reaction to acceptor) | ± (a saccharide-transferred product was detected in an amount less than one percent through transfer reaction to acceptor) | ± (a saccharide-transferred product was detected in an amount less than one percent through transfer reaction to acceptor) | ± (a saccharide-transferred product was detected in an amount less than one percent through transfer reaction to acceptor)
O=C(CO)[C@@H](O)[C@H](O)[C@H](O)CO [D-Fructose, D-fructose] | + (a saccharide-transferred product was detected in an amount over one percent but less than 10% through transfer reaction to acceptor) | + (a saccharide-transferred product was detected in an amount over one percent but less than 10% through transfer reaction to acceptor) | + (a saccharide-transferred product was detected in an amount over one percent but less than 10% through transfer reaction to acceptor) | + (a saccharide-transferred product was detected in an amount over one percent but less than 10% through transfer reaction to acceptor)
C[C@@H](O)[C@H](O)[C@H](O)[C@@H](O)C=O [D-Fucose, D-fucose] | ± (a saccharide-transferred product was detected in an amount less than one percent through transfer reaction to acceptor) | + (a saccharide-transferred product was detected in an amount over one percent but less than 10% through transfer reaction to acceptor) | + (a saccharide-transferred product was detected in an amount over one percent but less than 10% through transfer reaction to acceptor) | + (a saccharide-transferred product was detected in an amount over one percent but less than 10% through transfer reaction to acceptor)
O=C[C@H](O)[C@@H](O)[C@@H](O)[C@H](O)CO [D-Galactose, D-galactose] | ± (a saccharide-transferred product was detected in an amount less than one percent through transfer reaction to acceptor) | + (a saccharide-transferred product was detected in an amount over one percent but less than 10% through transfer reaction to acceptor) | + (a saccharide-transferred product was detected in an amount over one percent but less than 10% through transfer reaction to acceptor) | + (a saccharide-transferred product was detected in an amount over one percent but less than 10% through transfer reaction to acceptor)
O=C[C@H](O)[C@@H](O)[C@H](O)[C@H](O)CO [D-Glucose, D-glucose] | + (a saccharide-transferred product was detected in an amount over one percent but less than 10% through transfer reaction to acceptor) | + (a saccharide-transferred product was detected in an amount over one percent but less than 10% through transfer reaction to acceptor) | + (a saccharide-transferred product was detected in an amount over one percent but less than 10% through transfer reaction to acceptor) | + (a saccharide-transferred product was detected in an amount over one percent but less than 10% through transfer reaction to acceptor)
O=C[C@@H](O)[C@@H](O)[C@H](O)[C@H](O)CO [D-Mannose, D-mannose] | ± (a saccharide-transferred product was detected in an amount less than one percent through transfer reaction to acceptor) | − | − | −
O=C(CO)[C@H](O)[C@H](O)[C@H](O)CO [D-Psicose, D-psicose] | + (a saccharide-transferred product was detected in an amount over one percent but less than 10% through transfer reaction to acceptor) | + (a saccharide-transferred product was detected in an amount over one percent but less than 10% through transfer reaction to acceptor) | + (a saccharide-transferred product was detected in an amount over one percent but less than 10% through transfer reaction to acceptor) | + (a saccharide-transferred product was detected in an amount over one percent but less than 10% through transfer reaction to acceptor)
O=C[C@H](O)[C@@H](O)[C@H](O)CO [D-Xylose, D-xylose] | + (a saccharide-transferred product was detected in an amount over one percent but less than 10% through transfer reaction to acceptor) | ++ (a saccharide-transferred product was detected in an amount over ten percent through transfer reaction to acceptor) | ++ (a saccharide-transferred product was detected in an amount over ten percent through transfer reaction to acceptor) | ++ (a saccharide-transferred product was detected in an amount over ten percent through transfer reaction to acceptor)
OCC(O)CO [Glycerol, glycerol] | + (a saccharide-transferred product was detected in an amount over one percent but less than 10% through transfer reaction to acceptor) | + (a saccharide-transferred product was detected in an amount over one percent but less than 10% through transfer reaction to acceptor) | + (a saccharide-transferred product was detected in an amount over one percent but less than 10% through transfer reaction to acceptor) | + (a saccharide-transferred product was detected in an amount over one percent but less than 10% through transfer reaction to acceptor)
O=C1O[C@H]([C@@H](O)CO)C(O)=C1O [L-Ascorbic acid, L-ascorbic acid] | + (a saccharide-transferred product was detected in an amount over one percent but less than 10% through transfer reaction to acceptor) | + (a saccharide-transferred product was detected in an amount over one percent but less than 10% through transfer reaction to acceptor) | + (a saccharide-transferred product was detected in an amount over one percent but less than 10% through transfer reaction to acceptor) | + (a saccharide-transferred product was detected in an amount over one percent but less than 10% through transfer reaction to acceptor)
C[C@H](O)[C@H](O)[C@@H](O)[C@@H](O)C=O [L-Rhamnose, L-rhamnose] | − | − | − | −
